Results reported in patent US7732451B2, “Naphthalene-containing melanocortin receptor-specific small molecule” (Palatin Technologies, Inc., priority 2002, dated 2010).
Where two headings read alike, the source gives them in different places.

Experiments:
hMC4-R = target: T1, hMC4-R (Homo sapiens, UniProt P32245); assay: competitive inhibition binding assay, 125I-NDP-α-MSH, membranes; conditions: for inhibition at 1 µM: 1 μM compound, average of triplicates, read-out: Inhibition at 1 μM MC4-R; for Ki: read-out: Ki (nM) MC4-R
T1 construct: expressed in transfected cells
Method: (§1) A competitive inhibition binding assay was conducted using membranes prepared from hMC3-R, hMC4-R, hMC5-R, and B-16 mouse melanoma cells (containing MC1-R) using 0.4 nM ^125I-NDP-α-MSH (New England Nuclear, Boston, Mass., USA) in 50 mM HEPES buffer containing 1 mM MgCl2, 2 mM CaCl2, and 5 mM KCl, at pH 7.2. The assay tube also contained a chosen concentration of the test compound of this invention, for determining its efficacy in inhibiting the binding of ^125I-NDP-α-MSH to its receptor.
(§2) Incubation was for 90 minutes at room temperature, after which the assay mixture was filtered and the membranes washed three times with ice cold buffer. The filter was dried and counted in a gamma counter for remaining radioactivity bound to the membranes. 100% specific binding was defined as the difference in radioactivity (cpm) bound to cell membranes in the absence and presence of 1 μM α-MSH. […] Each assay was conducted in triplicate and the actual mean values are described. The Ki (nM) of certain compounds of the invention were determined.

hMC5-R = target: T2, hMC5-R (Homo sapiens, UniProt P33032); assay: as above; conditions: for inhibition at 1 µM: 1 μM compound, average of triplicates, read-out: Inhibition at 1 μM MC5-R; for Ki: read-out: Ki (nM) MC5-R
T2 construct: expressed in transfected cells
Method: as §1, §2

[1] = target: T3, MC1-R (B-16 mouse melanoma cells) (Mus musculus, UniProt Q01727); assay: as above; conditions: for inhibition at 1 µM: 1 μM compound, average of triplicates, results less than 0% reported as 0%
T3 construct: B-16 mouse melanoma cells (containing MC1-R); endogenous in cells; host or cells: B-16 mouse melanoma cells
Method: as §1, §2

hMC3-R = target: T4, hMC3-R (Homo sapiens, UniProt P41968); assay: as above; conditions: for inhibition at 1 µM: 1 μM compound, average of triplicates, read-out: Inhibition at 1 μM MC3-R
T4 construct: expressed in transfected cells
Method: as §1, §2

[2] = target: T5, MC4-R (HEK-293 cells expressing MC4-R) (Homo sapiens, UniProt P32245); assay: cAMP assay for agonist/antagonist status; format: cell-based; conditions: antagonism = inhibition of α-MSH-induced cAMP
T5 construct: expressed in transfected cells; host or cells: HEK-293
Method: (§3) Functional evaluation of compounds at melanocortin receptors was performed by measuring the accumulation of intracellular cAMP in HEK-293 cells expressing MC3-R, MC4-R or MC5-R, and in B-16 mouse melanoma cells (containing MC1-R). Cells, suspended in Earle's Balanced Salt Solution containing 10 mM HEPES, pH 7.5, 5 mM MgCl2, 1 mM glutamine, 0.1% albumin and 0.6 mM 3-isobutyl-1-methyl-xanthine, a phosphodiesterase inhibitor, were plated in 96 well plates at a density of 0.5×10^5 cells per well. Cells were incubated with the test compounds in the presence or absence of α-MSH for 1 hour at 37° C. cAMP levels were measured by EIA (Amersham) in the cell lysates. Data analysis and EC50 values were determined using nonlinear regression analysis with Prism Graph-Pad software.
(§4) The agonist/antagonist status with respect to MC4-R of certain compounds of the invention was determined. Antagonistic activity was determined by measuring the inhibition of α-MSH-induced cAMP levels following exposure to the compounds as in Example 2.

[3] = ICV feeding studies, change in food intake and body weight; format: in vivo, rat; conditions: 1 nmol, male Sprague-Dawley rats; for change in weight: 24 hour
Method: (§5) Change in food intake and body weight was evaluated for selected compounds. Male Sprague-Dawley rats weighing ˜300 g at the beginning of the experiment were kept on a 12 hour on/off light cycle. Lights out was adjusted to 12:00 p.m. to allow for dosing just prior to the start of their dark period. Rats (8-12/group) were fed powdered chow and water ad libitum. For 1 week before treatment, 24-hour food intake and body weight change was recorded to assess a baseline for the group during vehicle treatment. The rats were dosed ICV with vehicle or selected compounds (1-3 nmol). The changes in body weight and food intake for the 24 hour period after dosing were determined. The changes in body weight and food intake for the 48 hour period, and in same cases for 72 hours as well, after dosing were also measured to determined reversal of changes in body weight and food intake effect back to baseline.

[4] = target: T6, MC5-R (HEK-293 cells expressing MC5-R) (Homo sapiens, UniProt P33032); assay: cAMP assay for agonist/antagonist status; format: cell-based; conditions: antagonism = inhibition of α-MSH-induced cAMP
T6 construct: expressed in transfected cells; host or cells: HEK-293
Method: as §3, §4

[5] = target: T3, MC1-R (B-16 mouse melanoma cells); assay: cAMP assay for agonist/antagonist status; format: cell-based; conditions: antagonism = inhibition of α-MSH-induced cAMP
Method: as §3, §4

[6] = penile erection (PE) studies in male rats; format: in vivo, rat; conditions: IV
Method: The ability of compounds to induce penile erection (PE) in male rats was evaluated with selected compounds. Male Sprague-Dawley rats weighing 200-250 g were kept on a 12 hour on/off light cycle with food and water ad libitum. All behavioral studies were performed between 10 a.m. and 5 p.m. Groups of 4-8 rats were treated with compounds at a variety of doses via intravenous (IV) or intracerebroventricular (ICV) routes. Immediately after treatment, rats were placed into individual polystyrene cages (27 cm long, 16 cm wide, and 25 cm high) for behavioral observation. The iv and icv treated rats were observed respectively for 30 minutes and 120 min and the number of yawns, grooming bouts and PEs were recorded in 10-minute bins.

[7] = IV feeding studies, change in food intake and body weight; format: in vivo, rat; conditions: 3 μg/Kg, male Sprague-Dawley rats
Method: as §5, with “The rats were dosed ICV with vehicle or selected compounds (1-3 nmol).” left out

[8] = 1 μg/Kg, 30 minutes observation, stated below baseline

T4 sequence (P41968 whole entry): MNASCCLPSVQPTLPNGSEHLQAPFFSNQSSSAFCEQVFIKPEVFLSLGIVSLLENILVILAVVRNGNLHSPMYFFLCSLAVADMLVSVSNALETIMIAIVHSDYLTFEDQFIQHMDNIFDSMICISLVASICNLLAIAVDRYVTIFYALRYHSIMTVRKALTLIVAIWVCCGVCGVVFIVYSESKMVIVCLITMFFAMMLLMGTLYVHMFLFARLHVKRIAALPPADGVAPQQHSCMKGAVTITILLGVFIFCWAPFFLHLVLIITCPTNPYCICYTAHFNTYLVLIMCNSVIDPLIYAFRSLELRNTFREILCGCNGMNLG
T6 sequence (P33032 whole entry): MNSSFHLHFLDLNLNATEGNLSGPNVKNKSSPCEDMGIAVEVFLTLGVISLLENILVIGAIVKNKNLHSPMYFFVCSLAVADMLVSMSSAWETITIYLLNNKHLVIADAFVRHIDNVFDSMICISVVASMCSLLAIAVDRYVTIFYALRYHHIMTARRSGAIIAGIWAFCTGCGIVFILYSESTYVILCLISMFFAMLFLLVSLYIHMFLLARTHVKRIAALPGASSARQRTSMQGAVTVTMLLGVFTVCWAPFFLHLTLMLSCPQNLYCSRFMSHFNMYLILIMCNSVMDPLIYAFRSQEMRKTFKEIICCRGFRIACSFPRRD
T2 sequence (P33032 whole entry): as above
T3 sequence (Q01727 whole entry): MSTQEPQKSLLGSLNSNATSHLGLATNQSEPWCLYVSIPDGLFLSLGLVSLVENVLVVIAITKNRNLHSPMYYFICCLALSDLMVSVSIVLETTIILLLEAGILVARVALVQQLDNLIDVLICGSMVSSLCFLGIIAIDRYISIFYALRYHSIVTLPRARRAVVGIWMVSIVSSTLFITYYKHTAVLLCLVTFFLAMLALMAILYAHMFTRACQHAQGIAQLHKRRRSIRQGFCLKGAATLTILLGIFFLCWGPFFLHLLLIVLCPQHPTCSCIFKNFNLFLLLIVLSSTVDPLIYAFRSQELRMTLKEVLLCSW
T5 sequence (P32245 whole entry): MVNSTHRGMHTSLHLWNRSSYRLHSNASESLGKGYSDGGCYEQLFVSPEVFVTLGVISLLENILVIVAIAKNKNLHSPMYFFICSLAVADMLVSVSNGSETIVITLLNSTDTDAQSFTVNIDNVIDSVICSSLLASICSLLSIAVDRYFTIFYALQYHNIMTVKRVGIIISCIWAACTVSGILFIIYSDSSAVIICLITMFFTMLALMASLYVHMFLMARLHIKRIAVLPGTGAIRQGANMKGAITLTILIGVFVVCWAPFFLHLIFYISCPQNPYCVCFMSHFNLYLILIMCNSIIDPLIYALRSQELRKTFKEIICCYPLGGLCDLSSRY
T1 sequence (P32245 whole entry): as above

inhibition at 1 µM (hMC4-R)	inhibition at 1 µM (hMC5-R)	inhibition at 1 µM [1]	inhibition at 1 µM (hMC3-R)	agonist/antagonist status as to MC5-R [4]	agonist/antagonist status as to MC1-R [5]	Ki ([1]; bound printed in μM in a Ki (nM) table, read-out: Ki MC1-R)	Ki (hMC3-R; bound printed in μM in a Ki (nM) table, read-out: Ki MC3-R)	SMILES	agonist/antagonist status as to MC4-R [2]	24 hour change in food intake [3]	change in weight [3]	Ki (hMC4-R)	Ki (hMC5-R)	Ki ([1]; read-out: Ki (nM) MC1-R)	Ki (hMC3-R; read-out: Ki (nM) MC3-R)	mean PE [6, 8]	mean PE ([6]; 50 μg/Kg, stated not statistically relevant)	24 hour change in food intake [7]	change in weight ([7]; 24 hour)
91%	40%	25%	33%	–	–	–	–	N=C(N)NCCC[C@H]1CN(CCOc2ccc3ccccc3c2)CCN1C(=O)[C@@H](N)Cc1ccc(Cl)cc1Cl [Example 18]	–	–	–	–	–	–	–	–	–	–	–
100%	72%	37%	73%	–	–	–	–	Cc1ccc(C[C@@H](N)C(=O)N2C[C@@H](C)N(CCc3ccc4ccccc4c3)C[C@@H]2CCCNC(=N)N)c(Cl)c1 [Example 13, N-{3-[1-[2(R)-Amino-3-(2-chloro-4-methyl-phenyl)-propionyl]-5(R)-methyl-4-(2-naphthalen-2-yl-ethyl)-piperazin-2(S)-yl]-propyl}-guanidine]	antagonist	-1.6 g	-3.9 g	5 nM	527 nM	907 nM	227 nM	–	–	–	–
95%	36%	14%	32%	–	–	–	–	C[C@@H]1CN(CCc2ccc3ccccc3c2)C[C@H](CCCNC(=N)N)N1C(=O)[C@H](N)Cc1ccc(Cl)cc1Cl [Example 17 (R)-CH3, N-{3-[1-[2(R)-Amino-3-(2,4-dichloro-phenyl)-propionyl]-6(R)-methyl-4-(2-naphthalen-2-yl-ethyl)-piperazin-2(S)-yl]-propyl}-guanidine]	–	–	–	–	–	–	–	–	–	–	–
92%	51%	–	18%	–	–	–	–	NCCCC[C@H]1C(=O)N(CCc2ccc3ccccc3c2)CCN1C(=O)[C@@H](Cc1ccc(Cl)cc1Cl)NC(=O)[C@@H]1CC[C@H](c2ccccc2)N1 [Example 7]	–	-7.77 g	-5.88 g	–	–	–	–	–	–	–	–
97%	64%	3%	47%	inactive	agonist	–	–	C[C@H]1CN(CCc2ccc3ccccc3c2)C[C@H](CCCNC(=N)N)N1C(=O)[C@H](N)Cc1ccc(Cl)cc1Cl [Example 17 (S)-CH3, N-{3-[1-[2(R)-Amino-3-(2,4-dichloro-phenyl)-propionyl]-6(S)-methyl-4-(2-naphthalen-2-yl-ethyl)-piperazin-2(S)-yl]-propyl}-guanidine]	agonist	–	–	21 nM	602 nM	3180 nM	551 nM	–	–	–	–
96%	60%	30%	46%	agonist	antagonist	> 1000 nM	> 1000 nM	NCCCC[C@H]1C(=O)N(CCc2ccc3ccccc3c2)CCN1C(=O)[C@@H](Cc1ccc(Cl)cc1Cl)NC(=O)/C=C/c1ccccc1 [Example 8]	antagonist	-10.1 g	-9.91 g	13 nM	410 nM	–	–	0.13	–	–	–

SMILES	inhibition at 1 µM (hMC4-R)	inhibition at 1 µM (hMC5-R)	inhibition at 1 µM [1]	inhibition at 1 µM (hMC3-R)	agonist/antagonist status as to MC5-R [4]	agonist/antagonist status as to MC1-R [5]	Ki ([1]; bound printed in μM in a Ki (nM) table, read-out: Ki MC1-R)	Ki (hMC3-R; bound printed in μM in a Ki (nM) table, read-out: Ki MC3-R)	agonist/antagonist status as to MC4-R [2]	24 hour change in food intake [3]	change in weight [3]	Ki (hMC4-R)	Ki (hMC5-R)	Ki ([1]; read-out: Ki (nM) MC1-R)	Ki (hMC3-R; read-out: Ki (nM) MC3-R)	mean PE [6, 8]	mean PE ([6]; 50 μg/Kg, stated not statistically relevant)	24 hour change in food intake [7]	change in weight ([7]; 24 hour)
Cc1cc(Cl)ccc1C[C@@H](N)C(=O)N1C[C@@H](C)N(CCc2ccc3ccccc3c2)C[C@@H]1CCCNC(=N)N [Example 14, N-{3-[1-[2(R)-Amino-3-(4-chloro-2-methyl-phenyl)-propionyl]-5(R)-methyl-4-(2-naphthalen-2-yl-ethyl)-piperazin-2(S)-yl]-propyl}-guanidine]	100%	82%	23%	83%	–	–	–	–	partial agonist	-5.5 g	no change	1 nM	219 nM	1050 nM	99 nM	–	–	–	–
NCCCC[C@H]1C(=O)N(CCc2ccc3ccccc3c2)CCN1C(=O)[C@@H](Cc1ccc(Cl)cc1Cl)NC(=O)c1ccc(Oc2ccccc2)cc1 [Example 10]	99%	51%	–	51%	agonist	antagonist	–	–	antagonist	-0.6 g	-1.73 g	1 nM	282 nM	915 nM	150 nM	0.14	0.25	–	–
C[C@@H]1CN(C(=O)[C@H](N)Cc2ccc(Cl)cc2Cl)[C@@H](CCCNC(=N)N)CN1CCc1ccc2ccccc2c1 [Example 11, N-{3-[1-[2(R)-Amino-3-(2,4-dichloro-phenyl)-propionyl]-5(R)-methyl-4-(2 naphthalen-2-yl-ethyl)-piperazin-2(S)-yl]-propyl}-guanidine]	100%	78%	44%	82%	–	–	–	–	antagonist	-2.6 g	-0.3 g	2 nM	362 nM	1130 nM	95 nM	–	–	–	–
Cc1ccc(C[C@@H](N)C(=O)N2C[C@@H](C)N(CCc3ccc4ccccc4c3)C[C@@H]2CCCNC(=N)N)c(C)c1 [Example 16, N-{3-[1-[2(R)-Amino-3-(2,4-dimethyl-phenyl)-propionyl]-5(R)-methyl-4-(2-naphthalen-2-yl-ethyl)-piperazin-2(S)-yl]-propyl}-guanidine]	98%	73%	22%	67%	–	–	–	–	agonist	-2.6 g	-5 g	11 nM	717 nM	1220 nM	157 nM	–	–	-7.3 g	-6.3 g
